Data: patent US8673940B2, “Compounds for the treatment of diseases associated with amyloid or amyloid-like proteins” (AC Immune SA, priority 2006, dated 2014)
Where two headings read alike, the source gives them in different places.

How the values were obtained:
[1] = prior-art compound, stated in background; cited from earlier work
[2] = prior-art compound, stated in background; cited from earlier work; remark: listed apart in the source
[3] = biological target: T1, amyloid beta (Aβ) 1-42 peptide (Homo sapiens, UniProt P05067); test: Thioflavin T spectrofluorescence assay, inhibition of Aβ1-42 aggregation; format: biochemical
T1 construct: amyloid beta (Aβ) 1-42 peptide; purchased Bachem
Method: A number of the small molecules were tested for their capacity to inhibit the aggregation of amyloid beta (Aβ) 1-42 peptide using a thioflavin T spectrofluorescence assay.
Aβ1-42 lyophilized powder (Bachem) was reconstituted in hexafluoroisopropanol (HFIP) to 1 mM. The peptide solution was sonicated for 15 min at room temperature, agitated overnight, and aliquots were placed into non-siliconized microcentrifuge tubes. The HFIP was then evaporated under a stream of argon. The resulting peptide film was dried under vacuum for 10 min, tightly sealed and stored at −80° C. until used.
To assay for the small molecule-mediated inhibition of Aβ1-42 aggregation, the small molecules were dissolved before each experiment in anhydrous dimethyl sulfoxide (DMSO, Sigma-Aldrich) to reach a concentration of 7.4 mM. Aβ1-42 peptide film was dissolved in DMSO to reach 400 μM. Assay solution in PBS buffer was prepared in non-siliconized incubation tubes to reach the following concentrations: 330 μM small molecule, 33 μM Aβ1-42, 10 μM thioflavin T (ThT), and 12.8% DMSO. Therefore, the final molar ratio of small molecule to Aβ1-42 was 10:1. A positive control without a small molecule was prepared to measure maximum RFU. A negative control without Aβ1-42 was prepared for each small molecule. 3-Aminopyrazole trimer (Trimer) was tested in all assays to ascertain reproducibility between independent experiments. The solutions were incubated for 24 hrs at 37° C., and the spectrofluorescence (relative fluorescence units; RFU) was read in six replicates in black 384-well assay plates (Perkin-Elmer) on a Perkin-Elmer FluoroCount spectrofluorometer. Inhibition of aggregation is expressed as mean % inhibition or ±1 standard deviation (SD) according to the following equation: […]
Cut-off criterium for the selection of functional molecules was defined at 50% inhibition capacity.
The small molecules were evaluated for their capacity to mediate inhibition of Aβ1-42 aggregation at a 10:1 small molecule to Aβ1-42 molar ratio. The results are expressed as mean±standard deviation of two independent experiments.

[4] = biological target: T2, Oregon Green labelled Aβ1-42 (Homo sapiens, UniProt P05067); test: FCS-assay with 5 nM Oregon Green labelled Aβ-peptide (disaggregation of preformed aggregates); format: biochemical
T2 construct: DMSO-stock solutions of Oregon Green labelled Aβ1-42 1:1 with deionized water
Method: In order to analyse for the disaggregating properties of the compounds, preformed aggregates were used, which were induced straight before the FCS-measurement by diluting 500 nM DMSO-stock solutions of Oregon Green labelled Aβ1-42 1:1 with deionized water. The final concentration of Oregon Green labelled Aβ-peptide was 5 nM in 1×PBS and 3% DMSO. In order to improve the reproducibility of the measurements of the concentration dependencies of all samples were prepared fourfold.

T2 sequence (P05067 672-713 limits assumed): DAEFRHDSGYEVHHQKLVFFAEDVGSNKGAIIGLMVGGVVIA
T1 sequence (P05067 672-713 limits assumed): as above

## 3-Aminopyrazole trimer
[1]
  metabolic stability: metabolically unstable
[2]
  carcinogenicity: carcinogenic
  mutagenicity: mutagenic

## Clc1ccc(-c2csc(NCc3cnc(NCc4ccccc4)s3)n2)cc1 [Compound 2ak, N-Benzyl-5-((4-(4-chlorophenyl)thiazol-2-ylamino)methyl)thiazol-2-amine]
[3]; 24 h
  inhibition at 330 µM: 37.2 ± 14.8%
other
  melting point: 105 to 106 °C

## CCCCNc1cccc(CNc2cc(-c3ccc(F)cc3)[nH]n2)n1 [Compound 2am, N-Butyl-6-((5-(4-fluorophenyl)-1H-pyrazol-3-ylamino)methyl)pyridin-2-amine]
other
  melting point: 93 to 94 °C

## CCCNc1ccc(NCc2ccc(NCc3ccc(NCCC)nc3)nc2)nc1 [Compound 2c, N^5-Propyl-N^2-((6-((6-(propylamino)pyridin-3-yl)methylamino)pyridin-3-yl)methyl)pyridine-2,5-diamine]
[4]; 100 nM compound
  percentage of the "number of peaks" value obtained for the control reaction without added compound: 29.4%
  percentage of the "peaks x height" value obtained for the control reaction without added compound: 26.6%
[4]; 200 nM compound
  percentage of the "number of peaks" value obtained for the control reaction without added compound: 51.2%
  percentage of the "peaks x height" value obtained for the control reaction without added compound: 45.1%

## Fc1ccc(-c2cc(NCc3cccc(NCc4ccccc4)n3)n[nH]2)cc1 [Compound 2t, N-Benzyl-6-((5-(4-fluorophenyl)-1H-pyrazol-3-ylamino)methyl)pyridin-2-amine]
[3]; 330 μM small molecule, 33 μM Aβ1-42 (10:1 molar ratio), 24 hrs at 37° C., mean ± SD of two independent experiments, read-out: % inhibition
  inhibition at 330 µM: 86.8 ± 2.9%
[4]; 200 nM compound
  percentage of the "number of peaks" value obtained for the control reaction without added compound: 67.2%
  percentage of the "peaks x height" value obtained for the control reaction without added compound: 53.3%
